# In US11649269B2, “Bifunctional compounds comprising insulin peptides and EGF(A) peptides” (Novo Nordisk A/S, priority 2018, dated 2023):
# Columns and labels:
# primary rat adipocytes = assay: Lipogenesis in rat adipocytes; assay type: cell-based
# Procedure: Lipogenesis in Rat Adipocytes
# As a measure of in vitro potency of the insulins of the invention, lipogenesis can be used. Primary rat adipocytes are isolated from the epididymale fat pads and incubated with 3H-glucose in buffer containing e.g. 1% fat free HSA and either standard (human insulin, HI) or insulin of the invention. The labelled glucose is converted into extractable lipids in a concentration dependent way, resulting in full concentration response curves. The result is expressed as relative potency (%) with 95% confidence limits of insulin of the invention compared to standard (HI).
# [1] = target: T1, human insulin receptor (IR), solubilised human IR-A (Homo sapiens, UniProt P06213); assay: Insulin receptor affinity on solubilised receptors, competition binding SPA, 0% HSA; settings: Table 3, example numbers, binding affinity relative to human insulin
# T1 construct: baby hamster kidney (BHK) cells overexpressing the IR-A holoreceptor; made in house; host or cells: baby hamster kidney (BHK) cells overexpressing IR-A; detergent-solubilised, WGA semipurified
# [2] = target: T1, human insulin receptor (IR), solubilised human IR-A; assay: Insulin receptor affinity SPA, related assay with 1.5% HSA in binding buffer; settings: Table 3, example numbers, binding affinity relative to human insulin
# HepG2 cells = assay: LDL uptake assay in HepG2 cells in the presence of PCSK9; assay type: cell-based, human; settings: PCSK9 10 ug/mL
# PCSK9 = target: T2, PCSK9 (Homo sapiens, UniProt Q8NBP7); assay: PCSK9-LDL-R binding competitive ELISA; settings: apparent binding affinity
# T2 construct: purchased BioSite/BPSBioscience (PCSK9); R & D systems (rhLDL-R) 71304 (PCSK9); 2148-LD (rhLDL-R); host or cells: rhLDL-R: NSO-derived
# [3] = in vivo
# [4] = Table 3, example numbers, potency relative to human insulin
# [5] = Table 4, labels are comparator compound numbers, relative to human insulin
# [6] = Table 6, labels are comparator compound numbers
# [7] = Table 5, example numbers, Ki converted from IC50
Substance,Lipogenesis 1% HSA (% rel to HI) (primary rat adipocytes; [4]),Lipogenesis 1% HSA (% rel to HI) (primary rat adipocytes; [5]),other results
"EGF(A)(301L, 309R, 312E, 321E)-[GAQP]13-Insulin(B29K(octadecanedioyl-gGlu-2×OEG), desB30) [Example 9]",0.12 % rel to HI,–,–
"EGF(A)(301L, 309R, 312E, 321E)-[GAQP]19-Insulin(A14E, B29K(eicosanedioyl-gGlu-2×OEG), desB30) [Example 23]",0.02 % rel to HI,–,"hIR-A 0% HSA (% rel to HI) [1]: 2.89 % rel to HI; hIR-A 1.5% HSA (% rel to HI) [2]: 0.14 % rel to HI; EC50 (HepG2 cells; Table 5, example numbers): 126 nM"
"EGF(A)(301L, 309R, 312E, 321E)-[GAQP]12-Insulin(B29K(octadecanedioyl-gGlu-2×OEG), desB30) [Example 18]",0.09 % rel to HI,–,–
"EGF(A)(301L, 309R, 312E, 321E)-[GAQP]119-Insulin(B3E, B29K(eicosanedioyl-gGlu-2×OEG), desB30) [Example 24]",0.06 % rel to HI,–,–
"EGF(A)(301L, 309R, 312E, 321E)-[GAQP]2-Insulin(B29K(eicosanedioyl-gGlu-2×OEG), desB30) [Example 7]",–,0.18 % rel to HI,Ki (PCSK9; [6]): 1.74 nM
"EGF(A)(301L, 309R, 312E, 321E)-[GAQP]6-Insulin(A14E, B29K(octadecanedioyl-gGlu-2×OEG), desB30) [Example 13]",0.11 % rel to HI,–,"hIR-A 0% HSA (% rel to HI) [1]: 5.53 % rel to HI; hIR-A 1.5% HSA (% rel to HI) [2]: 0.35 % rel to HI; Ki (PCSK9; [7]): 1.92 nM; EC50 (HepG2 cells; Table 5, example numbers): 170 nM; Rat iv Mean Residence Time MRT [3]: 13.56 h"
"EGF(A)(301L, 309R, 312E, 321E)-[GAQP]2-Insulin(B3E, B29K(octadecanedioyl-gGlu-2×OEG), desB30) [Example 3]",0.16 % rel to HI,0.06 % rel to HI,–
"EGF(A)(301L, 309R, 312E, 321E)-[GAQP]4-Insulin(A14E, B29K(octadecanedioyl-gGlu-2×OEG), desB30) [Example 11]",0.12 % rel to HI,–,–
"EGF(A)(301L, 309R, 312E, 321E)-[GQAP]2-Insulin(B29K(octadecanedioyl-gGlu-2×OEG), desB30) [Example 8]",0.14 % rel to HI,0.30 % rel to HI,–
"EGF(A)(301L, 309R, 312E, 321E)-[GAQP]10-Insulin(B29K(octadecanedioyl-gGlu-2×OEG), desB30) [Example 2]",–,0.06 % rel to HI,–
"EGF(A)(301L, 309R, 312E, 321E)-[GAQP]6-Insulin(A14E, B29K(octadecanedioyl-gGlu-OEG), desB30) [Example 15]",0.08 % rel to HI,–,hIR-A 0% HSA (% rel to HI) [1]: 5.70 % rel to HI; hIR-A 1.5% HSA (% rel to HI) [2]: 0.23 % rel to HI; Ki (PCSK9; [7]): 2.07 nM
"EGF(A)(301L, 309R, 312E, 321E)-[GAQP]119-Insulin(A14E, B29K(octadecanedioyl-gGlu-2×OEG), desB30) [Example 20]",0.03 % rel to HI,–,"EC50 (HepG2 cells; Table 5, example numbers): 123 nM"
"EGF(A)(301L, 309R, 312E, 321E)-[GAQP]2-Insulin(B3E, B29K(octadecanedioyl-gGlu-OEG), desB30) [Example 5]",–,0.44 % rel to HI,–
"EGF(A)(301L, 309R, 312E, 321E)-[GAQP]2-Insulin(B29K(octadecanedioyl-gGlu-2×OEG), desB30) [Example 4]",0.13 % rel to HI,0.07 % rel to HI,–
"EGF(A)(301L, 309R, 312E, 321E)-[GAQP]4-Insulin(B29K(octadecanedioyl-gGlu-2×OEG), desB30) [Example 12]",0.14 % rel to HI,–,–
"EGF(A)(301L, 309R, 312E, 321E)-[GAQP]3-Insulin(A14E, B29K(octadecanedioyl-gGlu-2×OEG), desB30) [Example 10]",0.12 % rel to HI,–,EC50 (HepG2 cells; [6]): 152 nM
"EGF(A)(301L, 309R, 312E, 321E)-[GAQP]6-Insulin(A14E, B29K(eicosanedioyl-gGlu-2×OEG), desB30 [Example 16]",0.08 % rel to HI,–,hIR-A 0% HSA (% rel to HI) [1]: 4.77 % rel to HI; hIR-A 1.5% HSA (% rel to HI) [2]: 0.26 % rel to HI; Ki (PCSK9; [7]): 1.75 nM
"EGF(A)(301L, 309R, 312E, 321E)-[GAQP]19-Insulin(B29K(octadecanedioyl-gGlu-2×OEG), desB30) [Example 19]",0.09 % rel to HI,–,–
"EGF(A)(301L, 309R, 312E, 321E)-[GAQP]6-Insulin(B29K(octadecanedioyl-gGlu-2×OEG), desB30) [Example 14]",0.10 % rel to HI,–,–
"EGF(A)(301L, 309R, 312E, 321E)-[GAQP]2-Insulin(B3E, B29K(hexadecanedioyl-gGlu-2×OEG), desB30) [Example 1]",0.49 % rel to HI,0.14 % rel to HI,–
"EGF(A)(301L, 309R, 312E, 321E)-[GAQP]2-Insulin(B3E, B29K(eicosanedioyl-gGlu-2×OEG), desB30) [Example 6]",0.06 % rel to HI,0.06 % rel to HI,Ki (PCSK9; [7]): 2.49 nM
"EGF(A)(301L, 309R, 312E, 321E)-[GAQP]19-Insulin(B29K(eicosanedioyl-gGlu-2×OEG), desB30) [Example 22]",0.06 % rel to HI,–,–
"EGF(A)(301L, 309R, 312E, 321E)-[GAQP]119-Insulin(B3E, B29K(octadecanedioyl-gGlu-2×OEG), desB30) [Example 21]",0.07 % rel to HI,–,–
